Experimental data from ChEMBL document CHEMBL1201862, “PubChem BioAssay data set” (2004).
Counter-ions that a name gives are not always drawn.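 Results reflect a 48-hour exposure of cells in 96-well plates to compound at five concentrations. At the GI50, growth is halved.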 The source made the active and inactive calls. Rule as the data show it: active = GI50 up to about 1.1 µM and inactive = higher.

Assays:
Experiment in all cases: NCI anticancer screen, dose series, 48 h
[1] = system: MDA-MB-435
[2] = system: HOP-62
[3] = system: SK-MEL-5
[4] = system: SW-620
[5] = system: HCT-15
[6] = system: SNB-19
[7] = system: PC-3
[8] = system: MCF7
[9] = system: HT-29
[10] = system: U-251
[11] = system: MDA-N
[12] = system: OVCAR-5
[13] = system: SK-MEL-28
[14] = system: SF-268
[15] = system: TK-10
[16] = system: SF-539
[17] = system: CAKI-1
[18] = system: T47D
[19] = system: A498
[20] = system: SR

Row | SMILES | GI50 [1] | GI50 [2] | GI50 [3] | GI50 [4] | GI50 [5] [µM] | GI50 [6] | GI50 [7] | GI50 [8] | GI50 [9] | GI50 [10] | GI50 [11] | GI50 [12] | GI50 [13] | GI50 [14] | GI50 [15] | GI50 [16] | GI50 [17] | GI50 [18] | GI50 [19] | GI50 [20]
1 | CNc1ncnc(Sc2nc(N)nc3[nH]cnc23)c1[N+](=O)[O-] | 0.48 µM (active) | 0.675 µM (active) | 2.9 µM (inactive) | 0.94 µM (active) | 1.54 | 35.6 µM (inactive) | 4.23 µM (inactive) | 0.735 µM (active) | 1.09 µM (active) | 4.42 µM (inactive) | 0.552 µM (active) | 2.25 µM (inactive) | 8.2 µM (inactive) | 0.566 µM (active) | 0.251 µM (active) | 5.09 µM (inactive) | 0.582 µM (active) | 0.995 µM (active) | 17.9 µM (inactive) | 0.1 µM (active)
2 | C(=NCCN1CCOCC1)=NC1CCCCC1 | > 100 µM (inactive) | > 100 µM (inactive) | > 100 µM (inactive) | > 100 µM (inactive) | > 100 | > 100 µM (inactive) | > 100 µM (inactive) | > 100 µM (inactive) | > 100 µM (inactive) | > 100 µM (inactive) | > 100 µM (inactive) | > 100 µM (inactive) | > 100 µM (inactive) | > 100 µM (inactive) | > 100 µM (inactive) | > 100 µM (inactive) | > 100 µM (inactive) | > 100 µM (inactive) | > 100 µM (inactive) | 12.4 µM (inactive)
3 | CC1OC(OC2C(O)COC(OC3C(C)OC(OC4C(OC(=O)[C@]56CCC(C)(C)C[C@@H]5C5=CCC7[C@@]8(C)C[C@H](O)[C@H](OC9OC(CO)C(O)C(O)C9O)[C@@](C)(CO)[C@@H]8CC[C@@]7(C)[C@]5(C)CC6)OCC(O)C4O)C(O)C3OC3OCC(O)(CO)C3O)C2O)C(O)C(O)C1O (stereo partly drawn) | 17.4 µM (inactive) | 15.1 µM (inactive) | 13.3 µM (inactive) | 11.3 µM (inactive) | 16.1 | 14.7 µM (inactive) | 11.9 µM (inactive) | 25.5 µM (inactive) | 17.5 µM (inactive) | 16.3 µM (inactive) | 12.6 µM (inactive) | 8.93 µM (inactive) | 3.29 µM (inactive) | 10.2 µM (inactive) | 14.5 µM (inactive) | 20.8 µM (inactive) | 2.58 µM (inactive) | 18.8 µM (inactive) | 3.97 µM (inactive) | 13.8 µM (inactive)
4 | CO/N=C(\C)c1cccc(Nc2c3ccccc3nc3occc23)c1 | 2.34 µM (inactive) | 6.37 µM (inactive) | 6.22 µM (inactive) |  | 6.21 | 17.5 µM (inactive) | 16.8 µM (inactive) | 6.47 µM (inactive) | 4.47 µM (inactive) | 14.2 µM (inactive) | 4.35 µM (inactive) | 20.5 µM (inactive) | 5.35 µM (inactive) | 11.2 µM (inactive) | 20.4 µM (inactive) | 9.06 µM (inactive) | 4.82 µM (inactive) | 7.23 µM (inactive) | 19.3 µM (inactive) | 3.33 µM (inactive)
5 | COC(=O)C1=CO[C@@H](OC2OC(CO)C(O)C(O)C2O)[C@H]2[C@@H](C)[C@@H](O)[C@@H](O)[C@@H]12 (stereo partly drawn) | > 100 µM (inactive) | > 100 µM (inactive) | > 100 µM (inactive) | > 100 µM (inactive) | > 100 |  | > 100 µM (inactive) | > 100 µM (inactive) | > 100 µM (inactive) | > 100 µM (inactive) | > 100 µM (inactive) | > 100 µM (inactive) | > 100 µM (inactive) | > 100 µM (inactive) | > 100 µM (inactive) | > 100 µM (inactive) | > 100 µM (inactive) | > 100 µM (inactive) | > 100 µM (inactive) | 36.6 µM (inactive)
6 | O=C(c1ccc(F)cc1)c1cccc(C(=O)c2ccc(F)cc2)n1 | > 100 µM (inactive) | 20.1 µM (inactive) | 51.8 µM (inactive) | > 83.9 µM (inactive) | > 100 | 25.2 µM (inactive) | > 100 µM (inactive) | > 100 µM (inactive) | > 100 µM (inactive) | 19.1 µM (inactive) | > 100 µM (inactive) | > 95.3 µM (inactive) | > 100 µM (inactive) | 24.6 µM (inactive) | 39.7 µM (inactive) | 30.8 µM (inactive) | 28 µM (inactive) | 34.4 µM (inactive) | > 52.7 µM (inactive) | > 100 µM (inactive)
7 | O=C1C(Br)=CC2(C=C1Br)CCNC1=C2C2=NCCc3c[nH]c(c32)C1=O | 0.102 µM (active) | 2.32 µM (inactive) | 0.126 µM (active) | 0.0255 µM (active) | 0.0605 | 1.41 µM (inactive) | 0.307 µM (active) | 0.0266 µM (active) | 0.0275 µM (active) | 0.398 µM (active) | 0.102 µM (active) | 0.69 µM (active) | 0.163 µM (active) | 0.347 µM (active) | 0.204 µM (active) | 0.246 µM (active) | 0.134 µM (active) | 0.0828 µM (active) | 1.23 µM (inactive) | 0.0431 µM (active)
8 | C/N=c1\sc2c(n1C)C(=O)c1ccccc1C2=O | 0.192 µM (active) | 1.76 µM (inactive) | 1.27 µM (inactive) | 2.09 µM (inactive) | 2.03 | 3.4 µM (inactive) | 3.96 µM (inactive) | 1.65 µM (inactive) | 3.04 µM (inactive) | 2.55 µM (inactive) | 0.222 µM (active) | 3.99 µM (inactive) | 1.96 µM (inactive) | 3.85 µM (inactive) | 14.6 µM (inactive) | 2.01 µM (inactive) | 8.41 µM (inactive) | 3.78 µM (inactive) | 15.7 µM (inactive) | 3.75 µM (inactive)
9 | COc1ccc(-c2cc(-c3ccc(Nc4ccnc5cc(Cl)ccc45)cc3)nc(N)c2C#N)c2ccccc12 | > 100 µM (inactive) | > 100 µM (inactive) | > 100 µM (inactive) | > 100 µM (inactive) | > 100 | > 100 µM (inactive) | > 100 µM (inactive) | > 100 µM (inactive) | > 100 µM (inactive) | > 100 µM (inactive) | > 100 µM (inactive) | > 100 µM (inactive) | > 100 µM (inactive) | > 100 µM (inactive) | > 100 µM (inactive) | > 100 µM (inactive) | > 100 µM (inactive) | > 100 µM (inactive) | > 100 µM (inactive) | > 100 µM (inactive)
10 | CCn1c(SCC(=O)N/N=C2\SCC(=O)N2c2ccc(C)cc2)nc2ccccc2c1=O | 21.2 µM (inactive) | 21.7 µM (inactive) | 22.9 µM (inactive) | 33.7 µM (inactive) | 32.1 | 20.8 µM (inactive) | 21.3 µM (inactive) | 20.6 µM (inactive) | 16.5 µM (inactive) | 20.7 µM (inactive) | 23.6 µM (inactive) | 20.5 µM (inactive) | 20.6 µM (inactive) | 20.3 µM (inactive) | 15 µM (inactive) | 17.6 µM (inactive) | 18.7 µM (inactive) | 25.1 µM (inactive) | 20.8 µM (inactive) | 17.4 µM (inactive)
11 | c1cc2nnc1SCCCSc1ccc(nn1)SCCCSc1ccc(nn1)SCCCS2 | > 100 µM (inactive) | 39.6 µM (inactive) | > 100 µM (inactive) | > 100 µM (inactive) | > 100 | 44.7 µM (inactive) | > 100 µM (inactive) | > 100 µM (inactive) | > 100 µM (inactive) | 65.2 µM (inactive) | > 100 µM (inactive) | > 100 µM (inactive) | > 100 µM (inactive) | 92 µM (inactive) | > 100 µM (inactive) | 82.4 µM (inactive) | > 100 µM (inactive) | > 100 µM (inactive) | > 100 µM (inactive) | > 100 µM (inactive)
12 | CCOC(=O)CNC1=NNS(=O)(=O)c2ccccc21 | > 100 µM (inactive) | > 100 µM (inactive) | > 100 µM (inactive) | > 100 µM (inactive) | > 100 | > 100 µM (inactive) | > 100 µM (inactive) | > 100 µM (inactive) | > 100 µM (inactive) | > 100 µM (inactive) | > 100 µM (inactive) | > 100 µM (inactive) | > 100 µM (inactive) | > 100 µM (inactive) | > 100 µM (inactive) | > 100 µM (inactive) | > 100 µM (inactive) | > 100 µM (inactive) | 20.8 µM (inactive) | 97.1 µM (inactive)
13 | Nc1n[n+]([O-])c2ccc(Cl)cc2[n+]1[O-] | 21.4 µM (inactive) | 11 µM (inactive) | 4.07 µM (inactive) | 20.6 µM (inactive) | 16.1 | 34.5 µM (inactive) | 22.3 µM (inactive) | 16.9 µM (inactive) | 25.8 µM (inactive) | 19.8 µM (inactive) | 23.7 µM (inactive) | 25.8 µM (inactive) | 23.8 µM (inactive) | 52.1 µM (inactive) | 37.2 µM (inactive) | 23 µM (inactive) | 21.9 µM (inactive) | 24.7 µM (inactive) | 26.9 µM (inactive) | 32.5 µM (inactive)
14 | CC(=O)N(C)c1ccc(Nc2cc(C)nc3ccc4nc[nH]c4c23)cc1 [ACODAZOLE HYDROCHLORIDE] | 8.51 µM (inactive) | 6.19 µM (inactive) | 7.28 µM (inactive) | 4.88 µM (inactive) | 23 | 10.2 µM (inactive) | 5.09 µM (inactive) | 3.66 µM (inactive) | 11.3 µM (inactive) | 8.09 µM (inactive) | 10.5 µM (inactive) | 12.1 µM (inactive) | 15.1 µM (inactive) | 8.11 µM (inactive) | 13.6 µM (inactive) | 7.38 µM (inactive) | 5.04 µM (inactive) | 6.79 µM (inactive) | 10.4 µM (inactive) | 3.29 µM (inactive)
